Experimental data published in the supplement of paper PMC4862054.

These molecules were tested on MDA-MB-231 (assay: normalised response (% of control), CellTox Green; higher = less cell death (100 = DMSO, 0 = benzethonium chloride kill control)). Conditions: incubation time: 72 h.
Procedure, shortened: (§1)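 A 20 µl suspension of breast cancer cells was seeded into each well of 384-well plates containing compound at 5 concentrations in 10-fold steps over a compound-specific 10,000-fold range. After 72 h incubation, CellTox Green fluorescence (485/520 nm) was read first, and CellTiter-Glo luminescence was read after 10 min at room temperature. Each plate was normalised against 0.1 % DMSO (100) and a positive kill control (0), and each value is the normalised signal at one concentration.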
With `Cc1ccc([N+](=O)[O-])cc1S(=O)(=O)N(C)/N=C/c1cnc2ccc(Br)cn12` [PIK-75] (1000 nM) the normalised response was -17.8%.
Molecule `CC(=O)c1c(C)c2cnc(Nc3ccc(N4CCNCC4)cn3)nc2n(C2CCCC2)c1=O` [Palbociclib] (1000 nM) has a normalised response of 109%.
With `COc1cc(F)c(F)c(Nc2ccc(I)cc2F)c1NS(=O)(=O)C1(C[C@H](O)CO)CC1` [Refametinib] (1000 nM) the normalised response was 39.2%.

Each molecule was assayed on CAL-85-1 in the same assay as above. Conditions: incubation time: 72 h.
Procedure, shortened: as §1
With `C[C@]1(O)C[C@@H](c2nc(-c3ccc4ccc(-c5ccccc5)nc4c3)c3c(N)nccn32)C1` [Linsitinib] (100 nM) the normalised response was 90.8%.
`C[C@]1(O)C[C@@H](c2nc(-c3ccc4ccc(-c5ccccc5)nc4c3)c3c(N)nccn32)C1` [Linsitinib] (1000 nM) showed a normalised response of 97.3%.
`Cc1ccc([N+](=O)[O-])cc1S(=O)(=O)N(C)/N=C/c1cnc2ccc(Br)cn12` [PIK-75] (1000 nM) showed a normalised response of -12.6%.
`CC(=O)c1c(C)c2cnc(Nc3ccc(N4CCNCC4)cn3)nc2n(C2CCCC2)c1=O` [Palbociclib] (1000 nM) gave a normalised response of 114%.
In the case of `COc1cc(F)c(F)c(Nc2ccc(I)cc2F)c1NS(=O)(=O)C1(C[C@H](O)CO)CC1` [Refametinib] (1000 nM), the normalised response is reported as 46.6%.

What follows are molecules tested on MDA-MB-436 in the same assay as above. Conditions: incubation time: 72 h.
Procedure, shortened: as §1
Work on `C[C@]1(O)C[C@@H](c2nc(-c3ccc4ccc(-c5ccccc5)nc4c3)c3c(N)nccn32)C1` [Linsitinib] (100 nM) yielded a normalised response of 52.9%.
`C[C@]1(O)C[C@@H](c2nc(-c3ccc4ccc(-c5ccccc5)nc4c3)c3c(N)nccn32)C1` [Linsitinib] (1000 nM) gave a normalised response of 73.8%.
For `Cc1ccc([N+](=O)[O-])cc1S(=O)(=O)N(C)/N=C/c1cnc2ccc(Br)cn12` [PIK-75] (1000 nM), the normalised response was 102%.
`CC(=O)c1c(C)c2cnc(Nc3ccc(N4CCNCC4)cn3)nc2n(C2CCCC2)c1=O` [Palbociclib] (1000 nM) gave a normalised response of 100%.
Work on `COc1cc(F)c(F)c(Nc2ccc(I)cc2F)c1NS(=O)(=O)C1(C[C@H](O)CO)CC1` [Refametinib] (1000 nM) yielded a normalised response of 97.5%.

These molecules were tested on Hs578T in the same assay as above. Conditions: incubation time: 72 h.
Procedure, shortened: as §1
`C[C@]1(O)C[C@@H](c2nc(-c3ccc4ccc(-c5ccccc5)nc4c3)c3c(N)nccn32)C1` [Linsitinib] (1000 nM) was tested, and the normalised response was 93.5%.
Molecule `Cc1ccc([N+](=O)[O-])cc1S(=O)(=O)N(C)/N=C/c1cnc2ccc(Br)cn12` [PIK-75] (1000 nM) has a normalised response of 42.7%.
With `CC(=O)c1c(C)c2cnc(Nc3ccc(N4CCNCC4)cn3)nc2n(C2CCCC2)c1=O` [Palbociclib] (1000 nM) the normalised response was 108%.
For `COc1cc(F)c(F)c(Nc2ccc(I)cc2F)c1NS(=O)(=O)C1(C[C@H](O)CO)CC1` [Refametinib] (1000 nM), the normalised response was 109%.

What follows are molecules tested on HCC1143 in the same assay as above. Conditions: incubation time: 72 h.
Procedure, shortened: as §1
With `C[C@]1(O)C[C@@H](c2nc(-c3ccc4ccc(-c5ccccc5)nc4c3)c3c(N)nccn32)C1` [Linsitinib] (100 nM) the normalised response was 73%.
`C[C@]1(O)C[C@@H](c2nc(-c3ccc4ccc(-c5ccccc5)nc4c3)c3c(N)nccn32)C1` [Linsitinib] (1000 nM) showed a normalised response of 76.7%.
In the case of `Cc1ccc([N+](=O)[O-])cc1S(=O)(=O)N(C)/N=C/c1cnc2ccc(Br)cn12` [PIK-75] (1000 nM), the normalised response is reported as 56.9%.
`CC(=O)c1c(C)c2cnc(Nc3ccc(N4CCNCC4)cn3)nc2n(C2CCCC2)c1=O` [Palbociclib] (1000 nM) showed a normalised response of 70.3%.
Work on `COc1cc(F)c(F)c(Nc2ccc(I)cc2F)c1NS(=O)(=O)C1(C[C@H](O)CO)CC1` [Refametinib] (1000 nM) yielded a normalised response of 70.5%.

What follows are molecules tested on HDQ-P1 in the same assay as above. Conditions: incubation time: 72 h.
Procedure, shortened: as §1
With `C[C@]1(O)C[C@@H](c2nc(-c3ccc4ccc(-c5ccccc5)nc4c3)c3c(N)nccn32)C1` [Linsitinib] (100 nM) the normalised response was 93.2%.
For `C[C@]1(O)C[C@@H](c2nc(-c3ccc4ccc(-c5ccccc5)nc4c3)c3c(N)nccn32)C1` [Linsitinib] (1000 nM), the normalised response was 87.9%.
`Cc1ccc([N+](=O)[O-])cc1S(=O)(=O)N(C)/N=C/c1cnc2ccc(Br)cn12` [PIK-75] (1000 nM) gave a normalised response of 38.4%.
`CC(=O)c1c(C)c2cnc(Nc3ccc(N4CCNCC4)cn3)nc2n(C2CCCC2)c1=O` [Palbociclib] (1000 nM) gave a normalised response of 103%.
For `COc1cc(F)c(F)c(Nc2ccc(I)cc2F)c1NS(=O)(=O)C1(C[C@H](O)CO)CC1` [Refametinib] (1000 nM), the normalised response was 82.9%.

What follows are molecules tested on CAL-51 (assay: normalised response (% of control), CellTiter-Glo; higher = more viable cells (100 = DMSO, 0 = benzethonium chloride kill control)). Conditions: incubation time: 72 h.
Description: (§2)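 DSRT, 72 h incubation, CellTox Green / CellTiter-Glo readout. Signal is normalised to DMSO and benzethonium chloride controls. Value is the normalised response at dose 3.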
Molecule `C[C@]1(O)C[C@@H](c2nc(-c3ccc4ccc(-c5ccccc5)nc4c3)c3c(N)nccn32)C1` [Linsitinib] (100 nM) has a normalised response of 105%.

What follows are molecules tested on BT-549 in the same assay as above. Conditions: incubation time: 72 h.
Description: as §2
Work on `C[C@]1(O)C[C@@H](c2nc(-c3ccc4ccc(-c5ccccc5)nc4c3)c3c(N)nccn32)C1` [Linsitinib] (100 nM) yielded a normalised response of 100%.

The molecules below were run on CAL-120 in the same assay as above. Conditions: incubation time: 72 h.
Description: as §2
`C[C@]1(O)C[C@@H](c2nc(-c3ccc4ccc(-c5ccccc5)nc4c3)c3c(N)nccn32)C1` [Linsitinib] (100 nM) was tested, and the normalised response was 90.4%.

The molecules below were run on MDA-MB-468 in the same assay as above. Conditions: incubation time: 72 h.
Description: as §2
`C[C@]1(O)C[C@@H](c2nc(-c3ccc4ccc(-c5ccccc5)nc4c3)c3c(N)nccn32)C1` [Linsitinib] (100 nM) was tested, and the normalised response was 85.6%.

These molecules were tested on DU-4475 in the same assay as above. Conditions: incubation time: 72 h.
Description: as §2
`C[C@]1(O)C[C@@H](c2nc(-c3ccc4ccc(-c5ccccc5)nc4c3)c3c(N)nccn32)C1` [Linsitinib] (100 nM) gave a normalised response of 97.8%.

The molecules below were run on HCC1599 in the same assay as above. Conditions: incubation time: 72 h.
Description: as §2
With `C[C@]1(O)C[C@@H](c2nc(-c3ccc4ccc(-c5ccccc5)nc4c3)c3c(N)nccn32)C1` [Linsitinib] (100 nM) the normalised response was 107%.

The molecules below were run on MCF-10A in the same assay as above. Conditions: incubation time: 72 h.
Description: as §2
In the case of `C[C@]1(O)C[C@@H](c2nc(-c3ccc4ccc(-c5ccccc5)nc4c3)c3c(N)nccn32)C1` [Linsitinib] (100 nM), the normalised response is reported as 72.8%.

These molecules were tested on CAL-148 in the same assay as above. Conditions: incubation time: 72 h.
Description: as §2
With `C[C@]1(O)C[C@@H](c2nc(-c3ccc4ccc(-c5ccccc5)nc4c3)c3c(N)nccn32)C1` [Linsitinib] (100 nM) the normalised response was 90%.

Each molecule was assayed on BT-474 in the same assay as above. Conditions: incubation time: 72 h.
Description: as §2
`C[C@]1(O)C[C@@H](c2nc(-c3ccc4ccc(-c5ccccc5)nc4c3)c3c(N)nccn32)C1` [Linsitinib] (100 nM) was tested, and the normalised response was 91.3%.

The molecules below were run on MFM-223 in the same assay as above. Conditions: incubation time: 72 h.
Description: as §2
Work on `C[C@]1(O)C[C@@H](c2nc(-c3ccc4ccc(-c5ccccc5)nc4c3)c3c(N)nccn32)C1` [Linsitinib] (100 nM) yielded a normalised response of 91.4%.

The molecules below were run on MDA-MB-453 in the same assay as above. Conditions: incubation time: 72 h.
Description: as §2
Molecule `C[C@]1(O)C[C@@H](c2nc(-c3ccc4ccc(-c5ccccc5)nc4c3)c3c(N)nccn32)C1` [Linsitinib] (100 nM) has a normalised response of 90.7%.

These molecules were tested on HCC1937 in the same assay as above. Conditions: incubation time: 72 h.
Description: as §2
Work on `C[C@]1(O)C[C@@H](c2nc(-c3ccc4ccc(-c5ccccc5)nc4c3)c3c(N)nccn32)C1` [Linsitinib] (100 nM) yielded a normalised response of 107%.

Each molecule was assayed on MDA-MB-231 in the same assay as above. Conditions: incubation time: 72 h.
Description: as §2
Work on `C[C@]1(O)C[C@@H](c2nc(-c3ccc4ccc(-c5ccccc5)nc4c3)c3c(N)nccn32)C1` [Linsitinib] (100 nM) yielded a normalised response of 93.9%.

The molecules below were run on CAL-85-1 in the same assay as above. Conditions: incubation time: 72 h.
Description: as §2
In the case of `C[C@]1(O)C[C@@H](c2nc(-c3ccc4ccc(-c5ccccc5)nc4c3)c3c(N)nccn32)C1` [Linsitinib] (100 nM), the normalised response is reported as 89.7%.

What follows are molecules tested on MDA-MB-436 in the same assay as above. Conditions: incubation time: 72 h.
Description: as §2
In the case of `C[C@]1(O)C[C@@H](c2nc(-c3ccc4ccc(-c5ccccc5)nc4c3)c3c(N)nccn32)C1` [Linsitinib] (100 nM), the normalised response is reported as 88.9%.

Each molecule was assayed on Hs578T in the same assay as above. Conditions: incubation time: 72 h.
Description: as §2
Work on `C[C@]1(O)C[C@@H](c2nc(-c3ccc4ccc(-c5ccccc5)nc4c3)c3c(N)nccn32)C1` [Linsitinib] (100 nM) yielded a normalised response of 106%.

The molecules below were run on HCC1143 in the same assay as above. Conditions: incubation time: 72 h.
Description: as §2
`C[C@]1(O)C[C@@H](c2nc(-c3ccc4ccc(-c5ccccc5)nc4c3)c3c(N)nccn32)C1` [Linsitinib] (100 nM) gave a normalised response of 98.1%.

The molecules below were run on SK-BR-3 in the same assay as above. Conditions: incubation time: 72 h.
Description: as §2
Molecule `C[C@]1(O)C[C@@H](c2nc(-c3ccc4ccc(-c5ccccc5)nc4c3)c3c(N)nccn32)C1` [Linsitinib] (100 nM) has a normalised response of 84.8%.

The molecules below were run on HDQ-P1 in the same assay as above. Conditions: incubation time: 72 h.
Description: as §2
`C[C@]1(O)C[C@@H](c2nc(-c3ccc4ccc(-c5ccccc5)nc4c3)c3c(N)nccn32)C1` [Linsitinib] (100 nM) was tested, and the normalised response was 99.8%.
